Entries after “also recorded” stand apart in the source; their conditions may differ.
Legend:
C57BL/6 mice [1] = experiment: Sodium iodate chemical RPE debridement model of geographic atrophy; assay type: in vivo
Protocol: (§1) Another group of animals received MIF-inhibitor 6 days after laser treatment to determine the effect of MIF-neutralization on established CNV. RPE loss was also mimicked in twelve C57BL/6 mice by patchy debridement of RPE using intraperitoneal sodium iodate injection (25 mg/kg). Seven days later, animals received the subtenon MIF inhibitor and RPE resurfacing was determined on day 21 by morphometric image analysis. In all experiments, MIF^−/− animals and wild type animals that received the solvent (DMSO/Corn oil) and/or PBS were used as controls.
Immunostaining for RPE65, vimentin, E-cadherin, and N-cadherin was used to identify and characterize RPE differentiation.
Sodium iodate was employed for chemical debridement of RPE to mimic geographic atrophy. Mice received NalO3 (25 mg/kg) intraperitoneally followed by subtenon injection of Compound 1 (500 μg in 5 μL) on day 7. Mice were sacrificed on Day 21 and the surface coverage by RPE cells was determined.

C57BL/6 mice [2] = experiment: Laser-induced subretinal choroidal neovascularization (CNV) in mice; assay type: in vivo; conditions: for CNV yield (percent of the spots with CNV): read 10 days after laser
Text: In order to test the efficacy of MIF inhibitors to prevent subretinal or intraretinal neovascularization, subretinal choroidal neovascularization (CNV) was induced in C57BL/6 mice (n=3; 6 eyes/per experimental group) using a double-frequency YAG laser (532 nm). Laser parameters were 600 mW of power, 0.1 sec duration, and a spot size of 50 micrometers. Approximately 8-12 spots per eye were placed. One group of animals received 500 micrograms of 4-(2-fluorophenyl)-6-iodopyrimidine (Compound 1) into the posterior subtenon space through a 32-G needle 24 hours before laser application. Compound 1 was dissolved in 1:1 mixture of DMSO and corn oil solvent. The injection volume was 5 microliters.
Another group of animals received the drug six days after the laser photocoagulation when subretinal neovascularization is at its maximum growth. This scenario exemplified the use of MIF inhibitors (including, but not limited to Compound 1) in the treatment of active wet age-related macular degeneration (AMD). The two […] controls received either PBS or DMSO:corn oil mixture into the subTenon space. MIF^−/− animals (i.e., mice with a homozygous knock out of the MIF gene) were also taken as the negative control.
Ten days after the laser photocoagulation animals were perfused with high molecular weight dextran (2 megadalton)-conjugated fluorescein under deep anesthesia and then sacrificed. Choroidal neovascularization (CNV) yield (=percent of the spots with CNV) was determined under a fluorescent microscope.
The effect of MIF neutralization on retinal pigment epithelial (RPE) differentiation and wound healing properties in animal models of chemical RPE debridement and laser-induced choroidal neovascularization (CNV) was tested. CNV was induced in C57BL/6 mice (n=18) using a double-frequency YAG laser (532 nm; 600 mW; 0.1 sec; 50 μm; 8-12 spots/eye). The experimental group (n=6) received 500 μg/in 5 μl of a MIF inhibitor (4-iodo-6-(2-fluorophenyl)pyrimidine; Compound 1) in the posterior subtenon space 24 hours before laser application. Ten (10) days later, animals were sacrificed and induced CNV (i.e., yield) was determined.
as §1

C57BL/6 mice [3] = experiment: Proliferative vitreoretinopathy (PVR) model, surgically induced retinal detachment in mice; assay type: in vivo; conditions: 500 μg in 5 μl subtenon on days 0 and 5; light microscopy day 10
Protocol: The effect of MIF inhibition on EMT was further tested in vivo using an animal model of PVR. Six (6) adult C57BL/6 mice were anesthetized with pentobarbital sodium (70 mg/kg i.p.) and a linear incision was made in the cornea. The lens was removed and a tear was created in the peripheral retina using a 32G needle. The corneal incision was then sutured with 10-0 nylon.
The experimental group received 500 μg/in 5 μl of a MIF inhibitor (4-iodo-6-(2-fluorophenyl)pyrimidine; Compound 1) in the posterior subtenon space on Days 0 and 5, whereas control animals received the solvent. Animals were sacrificed on Day 10 and light microscopy was used to assess the presence and extent of PVR. MIF^−/− animals (n=3) were also used as control.
In order to test the safety and efficacy of MIF neutralization in vivo, the model disclosed in Saika et al., 2004 was employed.
Briefly, retinal detachment was created in three C57BL6 mice. Animals underwent a lensectomy/vitrectomy procedure under ketamine/xylazine anesthesia. These procedures were done through a central slit corneal incision. After the completion of the procedure, a tear was created in the peripheral retina under the microscope and the sensory retina was detached. Next, the cornea was closed with a 10-0 nylon suture and each animal was returned to its cage. […]

Brown Norway rats = experiment: PVR / retinal detachment model in Brown Norway rats; assay type: in vivo
Protocol: Briefly, retinal detachment was created in three C57BL6 mice. Animals underwent a lensectomy/vitrectomy procedure under ketamine/xylazine anesthesia. These procedures were done through a central slit corneal incision. After the completion of the procedure, a tear was created in the peripheral retina under the microscope and the sensory retina was detached. Next, the cornea was closed with a 10-0 nylon suture and each animal was returned to its cage. The experimental group received 500 μg/in 5 μl of the MIF inhibitor 4-(2-fluorophenyl)-6-iodopyrimidine (Compound 1) in the posterior subtenon space on days 0 and 5, whereas control animals received the solvent (i.e., a 1:1 mixture of DMSO and corn oil). Animals were sacrificed on day 10 and light microscopy was used to assess the presence and extent of PVR. MIF^−/− knockout animals (n=3) were also used as a control.
Similar experiments were also repeated using Brown Norway rats. […] However, in control animals (FIG. 5 I) numerous RPE cells became migratory in the vitreous and started to form epiretinal membranes

primary human RPE cells = experiment: EMT of cultured primary human RPE cells (morphology and qPCR); assay type: cell-based
Protocol: To determine whether MIF inhibition can prevent the formation proliferative vitreoretinopathy (PVR) by inhibiting epithelio-mesenchymal transformation (EMT) of RPE, primary human RPE cells from two young donors were plated on tissue-culture plastic and maintained in DMEM H16 supplemented with 10% FBS and a MIF inhibitor (4-IPP; 25-50 μM) for 3 weeks. Control cells were exposed only to the solvent (DMSO/Corn oil).
Morphology and qPCR for microphthalmia transcription factor (MITF), plasminogen activator inhibitor type-1 (PAI-1), vimentin, and N-cadherin were used to assay for the presence of EMT.
Human RPE cells were isolated freshly (<24 hours) from human donor eyes. Harvested RPE cells were cultured on tissue-culture plates. 25 μM of 4-IPP, a small molecule antagonist of MIF, was added to the culture medium every other day. Untreated wells were taken as control. 21 days later, cells were photographed and RNA was isolated for qPCR analyses.

[4] = 25 μM every other day, 21 days, qPCR
[5] = 25-50 μM for 3 weeks, qPCR vs control

Fc1ccccc1-c1cc(I)ncn1 [Compound 1, 4-(2-fluorophenyl)-6-iodopyrimidine]
differentiation of proliferating RPE cells (immunostaining) (C57BL/6 mice [1]; MIF-neutralized animals, RPE65, vimentin, E-cadherin, N-cadherin staining): maintained differentiated cuboidal morphology and expressed E-cadherin and RPE-65
surface coverage by RPE cells vs vehicle (FIG. 7) (C57BL/6 mice [1]; NaIO3 25 mg/kg i.p., 500 μg in 5 μL subtenon on day 7, day 21): statistically significant greater surface coverage
surface coverage by RPE cells (C57BL/6 mice [1]; sodium iodate 25 mg/kg i.p., subtenon MIF inhibitor on day 7, morphometric image analysis on day 21): 93.8±6.3%
RPE resurfacing of the denuded Bruch's membrane (FIGS. 8, 9) (C57BL/6 mice [1]; three weeks after partial destruction of RPE cells, vs vehicle): proliferated at a higher rate, resurfaced the Bruch's membrane, and formed an epithelial monolayer; also recorded: better resurfacing of the denuded Bruch's membrane with RPE cells; also recorded: RPE cells established a monolayer in many places; also recorded: proliferated at a higher rate; resurfaced the Bruch's membrane and formed an epithelial monolayer
RPE cell proliferation (PCNA staining) (C57BL/6 mice [1]; vs vehicle control mice, FIG. 10A): increased cell proliferation; also recorded: higher proliferation of the RPE cells
apoptotic cell death (TUNEL staining) (C57BL/6 mice [1]; vs vehicle control mice, FIG. 10B): decreased apoptotic cell death
CNV yield (percent of the spots with CNV) (C57BL/6 mice [2]; 500 μg in 5 μl posterior subtenon, 24 hours before laser (pre-laser)): 10.7%
CNV yield (percent of the spots with CNV) (C57BL/6 mice [2]; 500 μg subtenon 6 days after laser (post-laser, established CNV)): 12.9%
RPE growth over the laser spot (C57BL/6 mice [2]; histology / fluorescence microscopy of laser spots): RPE cells proliferated to cover the spot; also recorded: RPE proliferated over the laser spot and sealed it off from neovascularization; also recorded: proliferate over the laser spot and seal it off from neovascularization
occurrence of CNV (FIG. 1) (C57BL/6 mice [2]; post-laser application (5th bar)): significantly suppressed the occurrence of CNV
occurrence of CNV (FIG. 1) (C57BL/6 mice [2]; pre-laser application (4th bar)): significantly suppressed the occurrence of CNV
RPE cell layering / morphology in the subretinal space (C57BL/6 mice [3]): remained as a monolayer; also recorded: maintained an epitheloid monolayer in the subretinal space
formation / contraction of peri-retinal membranes (PVR) (C57BL/6 mice [3]): significantly inhibited the formation of peri-retinal membranes; also recorded: No physical distortion related with the contraction of periretinal membranes was noted
RPE morphology and invasion of subretinal / intravitreal space (Brown Norway rats; Brown Norway rats, FIG. 5H, vs control): maintained their epitheloid morphology and did not invade the subretinal and/or intravitreal space
preservation of photoreceptor cells in the detached retina (Brown Norway rats; FIG. 6A vs vehicle control FIG. 6B): better preservation of the photoreceptor cells in the detached retina; also recorded: better preserved
outer nuclear layer thickness (Brown Norway rats; detached retina, FIG. 6A vs controls): thicker outer nuclear layer

Ic1cc(-c2ccccc2)ncn1 [Compound 4-IPP, 4-iodo-6-phenylpyrimidine]
MITF mRNA level, control lower than inhibitor-treated cells (primary human RPE cells; [4]): 1.6 fold
N-cadherin mRNA level, control higher than inhibitor-treated cells (primary human RPE cells; [4]): 43.2 fold
PAI-1 mRNA level, control higher than inhibitor-treated cells (primary human RPE cells; [4]): 19.7 fold
vimentin mRNA level, control higher than inhibitor-treated cells (primary human RPE cells; [4]): 8.5 fold
cell number and morphology of cultured human RPE cells (FIG. 4A) (primary human RPE cells; 25 μM every other day, 21 days, vs control wells): significantly fewer in number, were uniformly pigmented, retained a classical cuboidal epithelial morphology
increase in MITF mRNA level (primary human RPE cells; [5]): 1.6 ×
reduction of N-cadherin mRNA level (primary human RPE cells; [5]): 43.2 ×
reduction of PAI-1 mRNA level (primary human RPE cells; [5]): 19.7 ×
reduction of vimentin mRNA level (primary human RPE cells; [5]): 8.5 ×
cell number and morphology of cultured human RPE cells (primary human RPE cells; 25-50 μM for 3 weeks, vs solvent control): significantly fewer in number but maintained their typical cuboidal epithelial morphology
